What was measured:
[1] = system: psoriasis-induced BALB/c mice; assay: Psoriasis animal model (Aldara cream, Imiquimod); type: in vivo, mouse
Procedure: To verify the therapeutic effect of the compound according to the present invention on psoriasis, a psoriasis animal model was established as follows, and the compound according to the present invention was administered to evaluate the alleviation of skin lesions and changes in immune cell patterns.
For the establishment of the psoriasis animal model, BALB/c mice (7 weeks old, female, 20 g) were purchased from HanabioTech Co., Ltd. and acclimatized to the rearing environment for one week.
Subsequently, the hair on the mouse back was shaved using a hair removal device for the first time, and then completely shaved using a depilatory cream (Nicrin Cream (80% thioglycolic acid, Il Dong Pharmaceutical)) for the second time. The mice were then kept for 24 hours to confirm the absence of skin damage.
To verify the psoriasis prevention and therapeutic effects of the compounds according to the present invention, the following experimental groups were established:
[Normal control group (Normal, Not Treatment), psoriasis-induced control group (Psoriasis, Not Treatment), psoriasis-induced vehicle control group (Psoriasis, Vehicle), experimental group (GO85, GO86, GO88, GO89, PBK-2024-010, PBK-2024-026, PBK-2025-002, PBK-2025-004, PBK-2025-016, PBK-2025-017, PBK-2025-023)]. […]
Body weights of mice in each group were measured on days 1, 4, and 8 after the start of injection and psoriasis induction. […]
To evaluate the therapeutic effect in a psoriasis-induced mouse model, the PASI (Psoriasis Area and Severity Index) score was measured.
The PASI score is based on three criteria: erythema, scaling, and skin thickness, each scored from 0 (none) to 4 (severe). […]
Observations were conducted daily at the same time, and the same observer visually assessed each criterion and recorded the scores, with the results presented in FIG. 13. […]
All samples were measured in duplicate, and the absorbance was measured at 450 nm using a microplate reader.

[2] = system: phospho-PDK1 in SU-DHL-8 cells; assay: PDK1 phosphorylation (pPDK1) by flow cytometry in SU-DHL-8 cells; type: cell-based, human; details: SU-DHL-8, 24 hours, pPDK1-PE flow cytometry, vs control group
Procedure: SU-DHL-8 cells were cultured in RPMI-1640 medium (containing 10% FBS, 100 U/mL penicillin, and 100 μg/mL streptomycin), and the cell concentration was adjusted to 1×10^6 cells/mL and seeded into a 12-well plate. After stabilizing the cells, the compound of the present invention was added, and the cells were cultured for 24 hours.
After drug treatment, the cells were harvested, and the Fc receptor blocking process was performed. The cells were then fixed and permeabilized using the Intracellular Staining Kit (Cat. No. BD554715) from BD Biosciences. Subsequently, the intracellular pPDK1 was stained using the pPDK1-PE fluorescently labeled antibody (BD Biosciences).
Referring to the figure, the vertical axis represents the phosphorylation level of PDK1 (phospho-PDK1 expression level), and the horizontal axis denotes the concentration-dependent treatment conditions of each compound.

[3] = system: Human Colorectal Carcinoma cell line, HCT-116; assay: Relative cell viability, CCK-8, HCT-116; type: cell-based; details: 48 hours
Procedure: Human-derived breast cancer cell line MCF-7, human-derived lung cancer cell line A549, human-derived colorectal cancer cell line HCT-116, human pancreatic cancer cell line AsPC-1, glioblastoma cell line A172, and melanoma cell line Malme-3M were obtained from the Korean Cell Bank. gastric cancer cell line SNU-719, and bladder cancer cell line T24 were cultured in RPMI-1640 medium containing 10% FBS.
Following stabilization, the cells were harvested using Trypsin-EDTA treatment, centrifuged at 1,200 rpm for 3 minutes, the supernatant was removed, and the cells were resuspended in the same medium. They were then seeded into a 96-well plate (Costar 96-well cell culture plate, Corning) at 100 μL per well, and the conditions were adjusted as indicated in Table 5.
The cells were cultured in a 5% CO2 incubator at 37° C. for 24 hours, and after stabilization of the cells, each plate was washed with 200 μL of PBS per well and treated with 50 μL of culture medium per well.
After that, 10 μL of CCK-8 was added to each well, and the plate was incubated again at 37° C. in a 5% CO2 incubator for 2 hours.
In other words, when the survival rate of untreated cells (DMSO) is set at 100%, the relative cell survival rate in each group treated with the drug at different concentrations is indicated.

SMILES | efficacy in improving dermatological symptoms [1] | PDK1 phosphorylation (phospho-PDK1 expression level) [2] | Relative cell viability (%) ([3]; HCT-116, 1 μM) | Relative cell viability (%) ([3]; HCT-116, 10 μM) | Relative cell viability (%) ([3]; HCT-116, 30 μM) | Relative cell viability (%) ([3]; HCT-116, 50 μM)
Nc1ncccc1C(=O)NCCCCCCCCCCCCN1CCNCC1 [Compound 14, 2-Amino-N-(12-(piperazin-1-yl)dodecyl)nicotinamide] | excellent efficacy in improving dermatological symptoms | stronger PDK1 inhibition | – | – | – | –
CC1(C)CN(CCCCCCCCCCCCC(=O)Nc2nc(N)c3[nH]cnc3n2)CCO1 [Compound 11, 12-[4-(2,2-dimethylmorpholin-4-yl)]dodecyl-N-(6-aminopurine-2-yl)carboxamide] | excellent efficacy in improving dermatological symptoms | stronger PDK1 inhibition | 21.36% | 24.91% | 24.78% | 25.26%

— US20260184700A1, “PDK1 REGULATORY COMPOUND AND COMPOSITION CONTAINING THE SAME” (PROVIBIO CO., LTD., priority 2024, published 2026)
